Converted amounts (≈) assume the structure as drawn. Read-outs that look alike come from different tables or passages of the source.
Columns and labels:
[1] = target: Phe371Tyr, Drosophila amino acid sequence (Drosophila melanogaster, UniProt P07140, F409Y); settings: Phe371Tyr mutant versus wild type enzyme; cited from earlier work
[2] = tested on: acetyl cholin esterase from sea lice (L. salmonis); settings: within 2 minutes, 0.01 µM azamethiphos, samples collected 2000 - 2002, cited from earlier work
sea lice (L. salmonis) [3] = assay: Bioassay of sea lice strains' sensitivity to azamethiphos (exposure to increasing concentrations); type: in vivo; settings: Lepeophtheirus salmonis
From the text: (§1) The parasites had to be tested by a bioassay method, i.e. exposure to increasing concentrations of the agent to see how much they tolerated. As no bioassay method for salmon lice sensitivity towards azamethiphos was published, an unpublished protocol had to be used, with necessary adaptations. To be on the safe side, small scale laboratory treatments with fish infected with parasites containing only the wild-type enzyme versus fish infected with parasites containing the mutation were also successfully performed and confirmed the bioassay results.
The sensitivity of the strains analyzed was tested by traditional bioassays and small scale treatments (Helgesen et al., 2013). The history of the strains were LSAlta: Sampled 2010, inbred for approx. 10 generations. Fully sensitive to all agents LSBjugn: Sampled 2008, inbred for approx. 15 generations. Moderately resistant to azamethiphos, pyrethroids and emamectin benzoate. LSGulen: Sampled in 2004, inbred for approx. 25 generations. Fully sensitive to all agents LSHitra: Sampled in 2011. Resistant towards azamethiphos (not tested for other agents). Inbred for approx. 7 generations. LSHitra-s: Subset of LSHitra where fish with parasites were treated with 100 ppb azamethiphos (Salmosan™) for 30 minutes in a 200 liter fibre-glass tank. The subset is the surviving parasites after treatment. LSVeso: Sampled in 2012 in the field (Otterøya) shortly after a full-scale treatment with azamethiphos in the farm. Only surviving parasites were sampled.

sea lice (L. salmonis) [4] = assay: Small scale laboratory treatment of fish infected with salmon lice; type: in vivo, Lepeophtheirus salmonis; settings: 100 ppb azamethiphos
From the text: as §1
The strains were: LSAlta: Sampled 2010, inbred for approx. 10 generations. No history of insensivity towards azamethiphos. LSBjugn: Sampled 2008, inbred for approx. 15 generations. History of insensitivity towards azamethiphos. LSGulen: Sampled in 2004, inbred for approx. 25 generations. No history of insensivity towards azamethiphos. LSHitra: Sampled in 2011, inbred for approx. 7 generations. History of insensitivity towards azamethiphos. LSHitra-s: Subset of LSHitra where fish with parasites were treated with 100 ppb azamethiphos (Salmosan™) for 30 minutes in a 200 liter fibre-glass tank. The subset is the surviving parasites after treatment. […]
The sensitivity of the strains analyzed was tested by traditional bioassays and small scale treatments (Helgesen et al., 2013). […]

SMILES | decrease the sensitivity of the enzyme [1] | acetyl cholin esterase inhibited ([2]; samples with bi-exponential decline rate (most likely heterozygot resistant), activity remained at this level) | enzyme activity inhibited ([2]; samples with mono-exponential decline rate (most likely wild type)) | EC50 (sea lice (L. salmonis) [3]; strain LSAlta) | EC50 (sea lice (L. salmonis) [3]; strain LSBjugn, read-out: EC50) | EC50 (sea lice (L. salmonis) [3]; strain LSGulen, read-out: EC50) | EC50 (sea lice (L. salmonis) [3]; strain LSHitra, read-out: EC50) | EC50 (sea lice (L. salmonis) [3]; strain LSVeso, tested at only one concentration, read-out: EC50) | Treatment efficacy (%) mean (sea lice (L. salmonis) [4]; strain LSAlta (fully sensitive)) | Treatment efficacy (%) mean (sea lice (L. salmonis) [4]; strain LSHitra (resistant))
CCOP(=O)(OCC)Oc1ccc([N+](=O)[O-])cc1 [paraoxon] | 200 fold |  |  |  |  |  |  |  |  | 
COP(=O)(OC)SCn1c(=O)oc2cc(Cl)cnc21 [azamethiphos, S-[(6-Chloro-2-oxo[1,3]oxazolo[4,5-b]pyridin-3(2H)-yl)methyl]O,O-dimethyl phosphorothioate] |  | approx. 80% | inhibited completely | 2.1 ng/mL | 4.5 ng/mL (≈ 0.0139 µM) | 1.8 ng/mL (≈ 0.00554 µM) | 60 ng/mL (≈ 0.185 µM) | > 100 ng/mL | 100% | 50%

Reference: patent EP3033433B1, “DETECTION OF ORGANOPHOSPHATE RESISTANCE IN CRUSTACEANS” (priority 2013, dated 2015)
